Data published in patent publication US20020001565A1, “Radioprotective agents” (priority 2000, published 2002).

Test system: CD2F 1 male mice
Assay: 30-day survival of mice after a lethal dose of cobalt-60 radiation
Type: in vivo
Experimental: Control groups were administered saline and polyethylene glycol 400 (the vehicle for the genistein) prior to irradiation. Genistein (Sigma Chemical Co., St. Louis, Mo.) was administered 400 mg/kg either as a single dose or multiple dosages of 100 mg/kg each at various times ranging from 1 hour to 4 days before radiation, after irradiation, or both before and after radiation.
In subsequent studies, using the procedures and mice of Example 1, a single subcutaneous dose of 100 or 400 mg/kg genistein was administered 24 hr before 9.5 Gy radiation.

O=c1c(-c2ccc(O)cc2)coc2cc(O)cc(O)c12 [genistein, 5,7-dihydroxy-3-(4-hydroxyphenyl)-4H-1 benzopyran-4-one]
30-day survival (100 mg/kg orally daily for 4 days before and 4 days after irradiation, 9.5 Gy): 50% | 30-day survival (genistein before and after irradiation, oral, 9.5 Gy cobalt-60, dose not given): 69% | 30-day survival (genistein only after irradiation, oral, 9.5 Gy cobalt-60, dose not given): 0% | 30-day survival (genistein only before radiation, oral, 9.5 Gy cobalt-60 at 0.6 Gy/min, dose not given): Forty-four | 30-day survival (multiple oral administration 100 mg/kg, 4 days before irradiation, 9.5 Gy): 0% | 30-day survival (multiple oral administration 100 mg/kg, after irradiation, 9.5 Gy): 0% | radioprotection (single dose 400 mg/kg orally 1 hr before 9.5 Gy radiation): did not confer any measurable radioprotection | radioprotection (single dose 400 mg/kg orally 24 hr before 9.5 Gy radiation): did not confer any measurable radioprotection | 30-day survival rate (single subcutaneous dose 100 mg/kg 24 hr before 9.5 Gy radiation): 69% | 30-day survival rate (single subcutaneous dose 400 mg/kg 24 hr before 9.5 Gy radiation): 81%
